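96-well plates; 48 h exposure; 5 concentrations. Endpoints by linear interpolation between flanking doses. Not reached: highest tested concentration assigned. The concentration for 50% growth inhibition is given as GI50.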 The source made the active and inactive calls. No stated cut-off is given here; in the data, active = GI50 up to about 1.1 µM and inactive = higher.
How the values were obtained:
Test in all cases: DTP human tumour cell line panel, 48 h
OVCAR-4 = system: OVCAR-4
SNB-75 = system: SNB-75
SW-620 = system: SW-620
RPMI-8226 = system: RPMI-8226
IGROV-1 = system: IGROV-1
HOP-92 = system: HOP-92
DMS-273 = system: DMS-273
U-251 = system: U-251
NCI-H460 = system: NCI-H460
SF-295 = system: SF-295
CCRF-CEM = system: CCRF-CEM
DMS-114 = system: DMS-114
SK-OV-3 = system: SK-OV-3
K562 = system: K562
ACHN = system: ACHN
RXF 393 = system: RXF 393
HT-29 = system: HT-29
KM-20L2 = system: KM-20L2
LOX IMVI = system: LOX IMVI
M14 = system: M14
HCT-116 = system: HCT-116
TK-10 = system: TK-10
OVCAR-8 = system: OVCAR-8
Malme-3M = system: Malme-3M
SK-MEL-28 = system: SK-MEL-28
COLO 205 = system: COLO 205
MOLT-4 = system: MOLT-4
UO-31 = system: UO-31
EKVX = system: EKVX
HCT-15 = system: HCT-15
OVCAR-3 = system: OVCAR-3
CAKI-1 = system: CAKI-1
A549 = system: A549
M19-MEL = system: M19-MEL
XF498 = system: XF498
DLD-1 = system: DLD-1
HL-60 = system: HL-60
RXF 631 = system: RXF 631
SN12C = system: SN12C
SNB-78 = system: SNB-78
NCI-H23 = system: NCI-H23
UACC-62 = system: UACC-62
HOP-18 = system: HOP-18
786-0 = system: 786-0
UACC-257 = system: UACC-257
SK-MEL-5 = system: SK-MEL-5
SNB-19 = system: SNB-19
SF-268 = system: SF-268
SF-539 = system: SF-539
LXFL 529 = system: LXFL 529
OVCAR-5 = system: OVCAR-5
NCI-H522 = system: NCI-H522
KM12 = system: KM12
HOP-62 = system: HOP-62
SR = system: SR
HCC 2998 = system: HCC 2998
A498 = system: A498
SK-MEL-2 = system: SK-MEL-2
NCI-H226 = system: NCI-H226

COc1cc(C2C(C(=O)O)=C(C)Oc3cc4c(cc32)OCO4)cc(OC)c1OC (stereo not given)
GI50 (OVCAR-4): 50.8 µM (inactive)
GI50 (SNB-75): 14.6 µM (inactive)
GI50 (SW-620): 33.7 µM (inactive)
GI50 (RPMI-8226): > 10 µM (inactive)
GI50 (IGROV-1): 58.2 µM (inactive)
GI50 (HOP-92): > 100 µM (inactive)
GI50 (DMS-273): 13.7 µM (inactive)
GI50 (U-251): 36.6 µM (inactive)
GI50 (NCI-H460): 37.7 µM (inactive)
GI50 (SF-295): 17.3 µM (inactive)
GI50 (CCRF-CEM): 29.9 µM (inactive)
GI50 (DMS-114): 16.2 µM (inactive)
GI50 (SK-OV-3): 39.9 µM (inactive)
GI50 (K562): 19.9 µM (inactive)
GI50 (ACHN): 45.2 µM (inactive)
GI50 (RXF 393): 11.6 µM (inactive)
GI50 (HT-29): 31.6 µM (inactive)
GI50 (KM-20L2): 32.4 µM (inactive)
GI50 (LOX IMVI): 41.3 µM (inactive)
GI50 (M14): 59 µM (inactive)
GI50 (HCT-116): 37.1 µM (inactive)
GI50 (TK-10): 88.3 µM (inactive)
GI50 (OVCAR-8): 51.2 µM (inactive)
GI50 (Malme-3M): 32.1 µM (inactive)
GI50 (SK-MEL-28): 26.4 µM (inactive)
GI50 (COLO 205): 23.9 µM (inactive)
GI50 (MOLT-4): 21.3 µM (inactive)
GI50 (UO-31): 15.3 µM (inactive)
GI50 (EKVX): 58.5 µM (inactive)
GI50 (HCT-15): 18.5 µM
GI50 (OVCAR-3): 19.3 µM (inactive)
GI50 (CAKI-1): 9.04 µM (inactive)
GI50 (A549): 45 µM (inactive)
GI50 (M19-MEL): 30.8 µM (inactive)
GI50 (XF498): 42.2 µM (inactive)
GI50 (DLD-1): 29 µM (inactive)
GI50 (HL-60): 15.7 µM (inactive)
GI50 (RXF 631): 36.1 µM (inactive)
GI50 (SN12C): 38.2 µM (inactive)
GI50 (SNB-78): 50.4 µM (inactive)
GI50 (NCI-H23): 54.2 µM (inactive)
GI50 (UACC-62): 11.7 µM (inactive)
GI50 (HOP-18): 28.8 µM (inactive)
GI50 (786-0): 37.2 µM (inactive)
GI50 (UACC-257): 39.6 µM (inactive)
GI50 (SK-MEL-5): 23.1 µM (inactive)
GI50 (SNB-19): 40.6 µM (inactive)

OCCCOC(c1ccccc1)(c1ccccc1)c1ccccc1
GI50 (OVCAR-4): > 100 µM (inactive)
GI50 (SNB-75): 20.1 µM (inactive)
GI50 (SW-620): > 100 µM (inactive)
GI50 (RPMI-8226): > 100 µM (inactive)
GI50 (IGROV-1): > 100 µM (inactive)
GI50 (HOP-92): 20.6 µM (inactive)
GI50 (DMS-273): > 100 µM (inactive)
GI50 (U-251): 51.5 µM (inactive)
GI50 (NCI-H460): > 100 µM (inactive)
GI50 (SF-268): > 100 µM (inactive)
GI50 (SF-295): 82.6 µM (inactive)
GI50 (CCRF-CEM): > 100 µM (inactive)
GI50 (DMS-114): > 100 µM (inactive)
GI50 (SF-539): > 100 µM (inactive)
GI50 (SK-OV-3): > 100 µM (inactive)
GI50 (K562): > 100 µM (inactive)
GI50 (ACHN): > 100 µM (inactive)
GI50 (RXF 393): < 0.01 µM (active)
GI50 (HT-29): 24.3 µM (inactive)
GI50 (KM-20L2): > 100 µM (inactive)
GI50 (LXFL 529): > 100 µM (inactive)
GI50 (LOX IMVI): 35.6 µM (inactive)
GI50 (M14): > 100 µM (inactive)
GI50 (HCT-116): 50.7 µM (inactive)
GI50 (TK-10): > 100 µM (inactive)
GI50 (OVCAR-8): > 100 µM (inactive)
GI50 (Malme-3M): > 100 µM (inactive)
GI50 (SK-MEL-28): > 100 µM (inactive)
GI50 (COLO 205): > 100 µM (inactive)
GI50 (MOLT-4): 93.3 µM (inactive)
GI50 (UO-31): 47 µM (inactive)
GI50 (OVCAR-5): > 100 µM (inactive)
GI50 (HCT-15): > 100 µM
GI50 (OVCAR-3): > 100 µM (inactive)
GI50 (CAKI-1): > 100 µM (inactive)
GI50 (NCI-H522): > 100 µM (inactive)
GI50 (A549): > 100 µM (inactive)
GI50 (M19-MEL): > 100 µM (inactive)
GI50 (KM12): > 100 µM (inactive)
GI50 (HOP-62): 39.7 µM (inactive)
GI50 (XF498): > 100 µM (inactive)
GI50 (DLD-1): 60.1 µM (inactive)
GI50 (SR): > 100 µM (inactive)
GI50 (HL-60): > 100 µM (inactive)
GI50 (RXF 631): > 100 µM (inactive)
GI50 (HCC 2998): > 100 µM (inactive)
GI50 (SN12C): > 100 µM (inactive)
GI50 (SNB-78): 38.9 µM (inactive)
GI50 (NCI-H23): 75.7 µM (inactive)
GI50 (UACC-62): 88.5 µM (inactive)
GI50 (786-0): > 100 µM (inactive)
GI50 (UACC-257): > 100 µM (inactive)
GI50 (SK-MEL-5): > 100 µM (inactive)

N#CC(C(=O)/C(=N/N)C(C#N)c1ccc(Cl)cc1)c1ccc(Cl)cc1 (stereo not given)
GI50 (OVCAR-4): > 100 µM (inactive)
GI50 (SNB-75): > 100 µM (inactive)
GI50 (SW-620): > 100 µM (inactive)
GI50 (RPMI-8226): > 100 µM (inactive)
GI50 (IGROV-1): > 100 µM (inactive)
GI50 (HOP-92): > 100 µM (inactive)
GI50 (U-251): > 100 µM (inactive)
GI50 (NCI-H460): > 100 µM (inactive)
GI50 (SF-268): > 100 µM (inactive)
GI50 (SF-295): > 100 µM (inactive)
GI50 (CCRF-CEM): > 100 µM (inactive)
GI50 (DMS-114): > 100 µM (inactive)
GI50 (SF-539): > 100 µM (inactive)
GI50 (K562): > 100 µM (inactive)
GI50 (ACHN): > 100 µM (inactive)
GI50 (RXF 393): > 100 µM (inactive)
GI50 (HT-29): > 100 µM (inactive)
GI50 (KM-20L2): > 100 µM (inactive)
GI50 (LXFL 529): > 100 µM (inactive)
GI50 (LOX IMVI): > 100 µM (inactive)
GI50 (M14): > 100 µM (inactive)
GI50 (HCT-116): > 100 µM (inactive)
GI50 (TK-10): > 100 µM (inactive)
GI50 (OVCAR-8): > 100 µM (inactive)
GI50 (Malme-3M): > 100 µM (inactive)
GI50 (SK-MEL-28): > 10 µM (inactive)
GI50 (COLO 205): > 100 µM (inactive)
GI50 (MOLT-4): > 100 µM (inactive)
GI50 (UO-31): > 100 µM (inactive)
GI50 (EKVX): > 100 µM (inactive)
GI50 (OVCAR-5): > 100 µM (inactive)
GI50 (HCT-15): > 100 µM
GI50 (OVCAR-3): > 100 µM (inactive)
GI50 (NCI-H522): > 100 µM (inactive)
GI50 (A549): > 100 µM (inactive)
GI50 (M19-MEL): > 100 µM (inactive)
GI50 (KM12): > 100 µM (inactive)
GI50 (HOP-62): > 100 µM (inactive)
GI50 (XF498): 57.3 µM (inactive)
GI50 (DLD-1): > 100 µM (inactive)
GI50 (HL-60): > 100 µM (inactive)
GI50 (RXF 631): > 100 µM (inactive)
GI50 (HCC 2998): > 100 µM (inactive)
GI50 (SN12C): > 100 µM (inactive)
GI50 (SNB-78): > 100 µM (inactive)
GI50 (A498): > 100 µM (inactive)
GI50 (NCI-H23): > 100 µM (inactive)
GI50 (UACC-62): > 100 µM (inactive)
GI50 (HOP-18): > 100 µM (inactive)
GI50 (786-0): > 100 µM (inactive)
GI50 (UACC-257): > 100 µM (inactive)
GI50 (SK-MEL-2): > 100 µM (inactive)
GI50 (SK-MEL-5): > 100 µM (inactive)
GI50 (SNB-19): > 100 µM (inactive)
GI50 (NCI-H226): > 100 µM (inactive)

Reference: ChEMBL document CHEMBL1201862, “PubChem BioAssay data set” (2004)
